Counter-ions that a name gives are not always drawn.
Target: T1, mineralocorticoid receptor (MR) (Homo sapiens, UniProt P08235)
T1 construct: expressed in transfected cells; host or cells: Huh7 (human liver cells)
T1 sequence (P08235 726-964 limits assumed): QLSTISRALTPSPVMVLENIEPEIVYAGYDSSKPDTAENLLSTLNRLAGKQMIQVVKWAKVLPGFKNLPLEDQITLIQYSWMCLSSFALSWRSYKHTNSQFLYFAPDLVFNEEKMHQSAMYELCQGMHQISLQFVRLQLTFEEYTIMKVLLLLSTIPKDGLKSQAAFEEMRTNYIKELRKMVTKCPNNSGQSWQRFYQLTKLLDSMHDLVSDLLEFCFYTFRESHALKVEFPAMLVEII
Test: Cell-based Gal4 response element-controlled luciferase reporter assay (MR antagonism)
Details: Huh7 human liver cells transfected with Gal4 DBD-MR LBD fusion and luciferase reporter; block of agonist-induced activation; overnight incubation
Excerpt: Method 1: Cell-based Gal4 Response Element-controlled Luciferase Reporter Assay
An in vitro assay can be used to evaluate mineralocorticoid receptor (MR) antagonism by a test compound. […] An agonist of the receptor can bind to and activate the receptor LBD, which activate the expression of the Gal4 response element containing luciferase reporter gene. Antagonists can compete for binding to the receptor LBDs and decrease the transcription activity of the reporter gene. Measurement of luciferase activity allows quantitative determinations of the reporter transcription in the presence of either agonists or agonists and antagonists in combination. β-galactosidase activity, which is unaffected by ligand, is used to normalize the transfection efficiency in the cell population.
Huh7 cells were plated in RPMI1640+10% fetal bovine serum (Invitrogen Corporation, San Diego, Calif.), at 10,000 cells per well in 96-well tissue culture dishes for approximately 24 hours. Cells were then transfected using FuGENE™ 6 Transfection Reagent according to manufacturers' instructions (Roche Molecular Biochemicals, Indianapolis, Ind.). Approximately 20 hours after transfection, media were removed. Cells were washed once with PBS and treated (n=6/group) with agonist for each receptor (all chemicals from Sigma, St. Louis, Mo.), and with compounds. Agonist concentrations represent 70-80% of full activation of each receptor.
Compounds were dissolved in DMSO at 10 mM and diluted to final concentrations in phenol red-free media that contained 10% charcoal- and dextran-stripped serum (Life Technologies, Gathersburg, Md.). Following overnight incubation (18-20 hours) with compounds, the medium was removed and replaced with 100 μL per well of PBS and 100 μL of Steady-Glo™ lysis buffer with luciferase substrate (Promega Corporation, Madison, Wis.). After a 30-minute incubation to completely lyse the cells, 100 μL of the lysate was transferred to a black, Dynatech Microfluor assay plates (Dynex Corporation, Chantilly, Va.) to measure luciferase activity. The plate was sealed with TopSeal self-adhesive film, dark-adapted for 5 minutes, then counted in a TopCount Plate Reader (Packard Instrument Company, Meriden, Conn.) in single photon counting mode. The remaining lysate was used for determination of β-galactosidase activity. In a clear 96-well assay plate, 100 μL of cell lysate was added to 100 μL β-galactosidase assay buffer per well. The assay buffer consisted of 60 mM Na2HPO4, 40 mM NaH2PO4, 10 mM KCl, 1 mM MgSO4, 50 mM β-mercaptoethanol, and 2.5 mg/mL ONPG, the latter two reagents were added just prior to assay (all chemicals from Sigma). The reaction was allowed to proceed until a distinct yellow color developed. Reactions were stopped by the addition of 100 μL per well 1 M Na2CO3 and plates were read at 420 nm in Victor-2 (Perkin Elmer Life Sciences, Boston, Mass.). Values (relative luciferase activity) for each sample were expressed as a ratio of luciferase activity to OD420β-galactosidase activity measured in arbitrary units for each well. […] “b” is the slope, “c” is the IC50 or EC50. “x” is the concentration of the compound and “y” the activity at that concentration.

IC50 [nM]	SMILES
113	N#Cc1ccc(N2N=C3c4ccc(O)cc4CC[C@@H]3[C@@H]2c2ccc(F)cc2)cc1C(F)(F)F [Example 84, 4-((3R,3aR)-3-(4-fluorophenyl)-7-hydroxy-3,3a,4,5-tetrahydrobenzo[g]indazol-2-yl)-2-(trifluoromethyl)benzonitrile]
553	N#Cc1ccc(N2N=C3c4ccc(C(=O)O)cc4CCC3C2c2ccc(F)cc2)cc1 (racemic) [Example 10, 2-(4-cyanophenyl)-3-(4-fluorophenyl)-3,3a,4,5-tetrahydro-2H-benzo[g]indazole-7-carboxylic acid]
> 1000	N#Cc1ccc(N2N=C3c4ccc(C(=O)O)cc4CCC3C2C2CCNCC2)cc1Cl (racemic) [Example 38, 2-(3-chloro-4-cyanophenyl)-3-(piperidin-4-yl)-3,3a,4,5-tetrahydro-2H-benzo[g]indazole-7-carboxylic acid trifluoroacetate]
535	O=C(O)c1ccc2c(c1)CCC1C2=NN(c2ccc3c(c2)CCNC3=O)C1c1ccc(F)cc1 (racemic) [Example 13, 3-(4-fluorophenyl)-2-(1-oxo-1,2,3,4-tetrahydroisoquinolin-6-yl)-3,3a,4,5-tetrahydro-2H-benzo[g]indazole-7-carboxylic acid]
307	Cc1cc(N2N=C3c4ccc(C(=O)O)cc4OCC3C2c2ccc(F)cc2)ccc1C#N (racemic) [Example 53, (±)-(3SR,3aSR)-2-(4-cyano-3-methylphenyl)-3-(4-fluorophenyl)-2,3,3a,4-tetrahydrochromeno[4,3-c]pyrazole-7-carboxylic acid]
488	N#Cc1ccc(N2N=C3c4ccc(C(=O)O)cc4CCC3C2C2CCCC2)cc1OCc1ccccc1 (racemic) [Example 31, 2-(3-(benzyloxy)-4-cyanophenyl)-3-cyclopentyl-3,3a,4,5-tetrahydro-2H-benzo[g]indazole-7-carboxylic acid]
> 1000	N#Cc1ccc(N2N=C3c4ccc(C(=O)O)cc4CCC3C2C2CCOCC2)cc1 (racemic) [Example 37, 2-(4-cyanophenyl)-3-(tetrahydro-2H-pyran-4-yl)-3,3a,4,5-tetrahydro-2H-benzo[g]indazole-7-carboxylic acid]
> 1000	N#Cc1ccc(N2N=C3c4ccc(OS(=O)(=O)C(F)(F)F)cc4OCC3C2c2ccc(F)cc2)cc1Cl (racemic) [Example 92, 2-(3-chloro-4-cyanophenyl)-3-(4-fluorophenyl)-2,3,3a,4-tetrahydrochromeno[4,3-c]pyrazol-7-yl trifluoromethanesulfonate]
302	N#Cc1ccc(N2N=C3c4ccc(C(=O)O)cc4OC[C@@H]3[C@@H]2c2ccc(F)cc2)cc1Cl [Example 56, (3R,3aR)-2-(3-chloro-4-cyanophenyl)-3-(4-fluorophenyl)-2,3,3a,4-tetrahydrochromeno[4,3-c]pyrazole-7-carboxylic acid]
> 500	Cc1cc(N2N=C3c4ccc(C(=O)O)cc4CC[C@H]3[C@H]2C2CCCC2)ccc1C#N (single isomer, unassigned) [Example 23]
205	N#Cc1ccc(N2N=C3c4ccc(C(=O)O)cc4CCC3C2C2=CCCC2)cc1 (racemic) [Example 50, 2-(4-cyanophenyl)-3-cyclopent-1-en-1-yl-3,3a,4,5-tetrahydro-2H-benzo[g]indazole-7-carboxylic acid]

SMILES	IC50 [nM]
N#Cc1ccc(N2N=C3c4ccc(C(=O)O)cc4CC[C@H]3[C@H]2c2ccc(F)cc2)cc1Cl [Example 4, (3S,3aS)-2-(3-chloro-4-cyanophenyl)-3-(4-fluorophenyl)-3,3a,4,5-tetrahydro-2H-benzo[g]indazole-7-carboxylic acid]	3500
N#Cc1ccc(N2N=C3c4ccc(C(=O)O)cc4CCC3C2c2ccc(F)cc2)cc1Cl (racemic) [Example 2, 2-(3-chloro-4-cyanophenyl)-3-(4-fluorophenyl)-3,3a,4,5-tetrahydro-2H-benzo[g]indazole-7-carboxylic acid]	223

Reference: patent US7781428B2 (Pfizer Inc., priority 2006, dated 2010)
